Key:
[1] = tested on: myocardial ischemia-reperfusion injury in cats; assay: Myocardial ischemia-reperfusion injury in cats in vivo (coronary artery arrest 30 min, reperfusion 60 min); design: species or system cat; settings: 1.3 mg/kg
Procedure: In order to further evaluate the protective effect of PPTA on myocardium injured by ischemia-reperfusion, a pathological model of myocardial ischemia-reperfusion injury in cats in vivo was established by arrest the coronary artery for 30 min, then reperfusion for 60 min, studying the effects on blood biochemistry, myocardium ultrastructure, etc.

[2] = target: T1, cTnC isolated from cattle cardiac muscle (Bos taurus, UniProt P63315); assay: Affinity of Ca^2+ to cTnC by fluorescent probe dansyl chloride labeling; assay type: binding; settings: for Influence on the affinity curve of cTnC to Ca^2+: 50 μmol/L; for Effect on the cTnC-Ca^2+ affinity curve: 55 μmol/L (FIG. 4)
T1 construct: cTnC isolated from cattle cardiac muscle; from tissue; host or cells: cattle cardiac muscle
Source text: The effect of PPTA-I on the affinity of Ca^2+ to cTnC isolated from cattle cardiac muscle was studied by fluorescent probe dansyl chloride labeling to discuss the calcium sensitization mechanisms of piperphentonamine hydrochloride, and compared the results to the already known calcium sensitizers MCI-154 and sulmazole (Sul).

[3] = Solubility and stability of piperphentonamine hydrochloride in water for injection; assay type: physicochemical
Source text: Piperphentonamine hydrochloride with the molecular formula C21H23NO4.HCl has a molecular weight of […], batch No. 2001803, provided by Guangzhou Zhongwei Biotechnology Ltd Company. Its preparation method is described in Chinese patent No. 02125318.8. […] In order to achieve the lyophilized powder for injection with good redissolving ability and stability, piperphentonamine hydrochloride and excipient need to be dissolved in water for injection with pH 1.5 to 5.5 and then lyophilized, especially preferred water for injection with pH 2 to 3.

[4] = conventionally known; cited from earlier work
[5] = tested on: cat heart failure model induced by verapamil; assay: Cardiac hemodynamic parameters in cat heart failure model induced by verapamil, intravenous administration; assay type: in vivo; settings: 0.1 mg/kg; for +dP/dt max, Change, % / Cardiac contractility, Change % / HR, Change % / LVEDP, Change, % / LVSP, Change, % / MAP, Change % / −dP/dt max, Change, %: vs. baseline
Procedure: To study the therapeutic effect of the novel cardiotonic and vasodilator PPTA-I on heart failure, the cardiac hemodynamic parameters were determined by a polygraph in cat heart failure model induced by verapamil.

[6] = treated by sonication and heating

## COc1ccc(CCN(C)CCCC(C#N)(c2ccc(OC)c(OC)c2)C(C)C)cc1OC (stereo not drawn) [verapamil]
[1]; injury control 2.5 ± 0.55
  Score of myocardium pathological change: 1.3 ± 0.18
[1]; serum, injury control 2.3 ± 0.62
  Content of cTnI: 1.4 ± 0.21
[1]; serum, injury control 86 ± 17
  Content of MDA: 65 ± 12 nmol/L
[1]; serum, injury control 385 ± 75
  CPK activity: 271 ± 80

## piperphentonamine hydrochloride
[2]; 15 μmol/L
  Shift of cTnC-Ca^2+ affinity curve: slightly shifted to the left without statistical significance
[2]; 35 μmol/L
  Shift of cTnC-Ca^2+ affinity curve: shifted to the left with statistical significance
[2]; 55 μmol/L (FIG. 3)
  Shift of cTnC-Ca^2+ affinity curve to the left compared with the control curve: 0.2 pCa
[3]; easy to degrade and turn yellow
  Stability in water for injection: not stable
[3]; [6]
  Solubility in water for injection with pH 1.5 to 5.5: easy to be dissolved
  pH of water for injection with the best solubility and stability: 2 to 3
[3]; untreated
  Solubility in water for injection: difficult to be dissolved
[4]
  Solubility in water: insoluble or poor soluble in water

## COc1cc([S+](C)[O-])ccc1-c1nc2ncccc2[nH]1 (stereo not drawn) [Sul, sulmazole]
[2]
  Influence on the affinity curve of cTnC to Ca^2+: no significant influence
  Effect on the cTnC-Ca^2+ affinity curve: no significant effect

## Cc1[nH]c(=O)c(C#N)cc1-c1ccncc1 [Milrinone]
[5]
  +dP/dt max increased by at most: 61±26%
  Effect on HRs: did not affect
  Effect on LVSP, LVEDP and −dP/dt max: without changing
  MAP decreased by: 10%
  Period of +dP/dt max increase: over 20 minutes
  Period of the effect on MAP and cardiac contractility: 5 min
[5]; 2 min
  +dP/dt max, Change, %: 18 ± 23 %
  Cardiac contractility, Change %: 38 ± 32 # %
  HR, Change %: 0 ± 5%
  LVEDP, Change, %: 1 ± 2%
  LVSP, Change, %: 4 ± 11%
  MAP, Change %: −4 ± 4 %
  −dP/dt max, Change, %: 0 ± 23%
[5]; 5 min
  +dP/dt max, Change, %: 52 ± 24 ### %
  Cardiac contractility, Change %: 92 ± 80 # %
  HR, Change %: 2 ± 15%
  LVEDP, Change, %: 5 ± 16%
  LVSP, Change, %: 5 ± 15%
  MAP, Change %: −10 ± 8 # %
  −dP/dt max, Change, %: 3 ± 19%
[5]; 10 min
  +dP/dt max, Change, %: 61 ± 26 ### %
  Cardiac contractility, Change %: 71 ± 78 %
  HR, Change %: 2 ± 16%
  LVEDP, Change, %: −1 ± 5%
  LVSP, Change, %: 6 ± 17%
  MAP, Change %: −10 ± 6 ## %
  −dP/dt max, Change, %: 11 ± 20%
[5]; 15 min
  +dP/dt max, Change, %: 54 ± 33 ## %
  Cardiac contractility, Change %: 58 ± 74 %
  HR, Change %: 3 ± 16%
  LVEDP, Change, %: −7 ± 16%
  LVSP, Change, %: 3 ± 18%
  MAP, Change %: −10 ± 8 # %
  −dP/dt max, Change, %: 8 ± 23%
[5]; 20 min
  +dP/dt max, Change, %: 61 ± 45 # %
  Cardiac contractility, Change %: 61 ± 69 %
  HR, Change %: −13 ± 37%
  LVEDP, Change, %: 2 ± 11%
  LVSP, Change, %: 4 ± 22%
  MAP, Change %: −8 ± 12%
  −dP/dt max, Change, %: −4 ± 22%

## O=C1CCC(c2ccc(Nc3ccncc3)cc2)=NN1 [MCI-154]
[2]
  Influence on the affinity curve of cTnC to Ca^2+: no significant influence
  Effect on the cTnC-Ca^2+ affinity curve: no significant effect

From US8513301B2, “Kind of piperphentonamine hydrochloride lyophilized powder for injection and preparation and use thereof” (Guangzhou Zhongwei Biotechnology Ltd., priority 2007, dated 2013)
